Experimental findings from paper PMC5218480 (PLoS ONE, 2017) are described below.

This assay deals with MV-4-11 cells. Put plainly: Gene expression microarray analysis (Affymetrix PrimeView) and GSEA. Format: cell-based, human. Further details: RFU PODN (11730768_x_at) / Fold change /veh PODN (11730768_x_at) / RFU LINC00158 (11744669_a_at) / Fold change /veh LINC00158 (11744669_a_at) / RFU DUSP10 (11751237_a_at) / Fold change /veh DUSP10 (11751237_a_at) / RFU ID3 (11757404_x_at) / Fold change /veh ID3 (11757404_x_at) / RFU PLEKHG5 (11737974_s_at) / Fold change /veh PLEKHG5 (11737974_s_at) / RFU LRRC4B (11730491_at) / Fold change /veh LRRC4B (11730491_at) / RFU GIMAP4 (11747438_a_at) / Fold change /veh GIMAP4 (11747438_a_at) / RFU KRT8 (11758183_x_at) / Fold change /veh KRT8 (11758183_x_at) / RFU CNN1 (11734310_a_at) / Fold change /veh CNN1 (11734310_a_at) / RFU VPS37D (11726825_at) / Fold change /veh VPS37D (11726825_at) / RFU C10orf10 (11716522_x_at) / Fold change /veh C10orf10 (11716522_x_at) / RFU KIR2DL2 /// KIR2DL4 /// KIR2DL5A /// KIR2DL5B /// KIR2DS1 /// KIR2DS2 /// KIR2DS3 /// KIR2DS4 /// KIR3DL3 /// KIR3DL3 /// KIR3DS1 (11738374_at) / Fold change /veh KIR2DL2 /// KIR2DL4 /// KIR2DL5A /// KIR2DL5B /// KIR2DS1 /// KIR2DS2 /// KIR2DS3 /// KIR2DS4 /// KIR3DL3 /// KIR3DL3 /// KIR3DS1 (11738374_at) / RFU C1QL1 (11718748_at) / Fold change /veh C1QL1 (11718748_at) / RFU TMPRSS4 (11747572_a_at) / Fold change /veh TMPRSS4 (11747572_a_at) / RFU HAMP (11756126_x_at) / Fold change /veh HAMP (11756126_x_at) / RFU RNFT2 (11725882_a_at) / Fold change /veh RNFT2 (11725882_a_at) / RFU NR4A2 (11747474_a_at) / Fold change /veh NR4A2 (11747474_a_at) / RFU ABCC12 (11746883_a_at) / Fold change /veh ABCC12 (11746883_a_at) / RFU TMEM136 (11760407_x_at) / Fold change /veh TMEM136 (11760407_x_at) / RFU CLDN22 /// WWC2 (11732394_at) / Fold change /veh CLDN22 /// WWC2 (11732394_at) / RFU HLA-DPB1 (11760878_x_at) / Fold change /veh HLA-DPB1 (11760878_x_at) / RFU SPINT1 (11716480_a_at) / Fold change /veh SPINT1 (11716480_a_at) / RFU GAP43 (11754022_s_at) / Fold change /veh GAP43 (11754022_s_at) / RFU A4GNT (11735810_at) / Fold change /veh A4GNT (11735810_at) / RFU PRB3 (11715151_x_at) / Fold change /veh PRB3 (11715151_x_at) / RFU TUBB4B (11761932_at) / Fold change /veh TUBB4B (11761932_at) / RFU CAPN14 (11732068_a_at) / Fold change /veh CAPN14 (11732068_a_at) / RFU TMCC2 (11721928_a_at) / Fold change /veh TMCC2 (11721928_a_at) / RFU IRGQ (11745062_a_at) / Fold change /veh IRGQ (11745062_a_at) / RFU FAM174B (11720279_a_at) / Fold change /veh FAM174B (11720279_a_at) / RFU TMPRSS4 (11748680_a_at) / Fold change /veh TMPRSS4 (11748680_a_at) / RFU FAM212B (11763350_a_at) / Fold change /veh FAM212B (11763350_a_at) / RFU PLEKHG5 (11743358_a_at) / Fold change /veh PLEKHG5 (11743358_a_at) / RFU ZSCAN30 (11745921_a_at) / Fold change /veh ZSCAN30 (11745921_a_at) / RFU CMKLR1 (11741424_a_at) / Fold change /veh CMKLR1 (11741424_a_at) / RFU LOC101060620 /// MAPK8IP1 (11723275_at) / Fold change /veh LOC101060620 /// MAPK8IP1 (11723275_at) / RFU SPTSSB (11747773_x_at) / Fold change /veh SPTSSB (11747773_x_at) / RFU PRSS12 (11739890_at) / Fold change /veh PRSS12 (11739890_at) / RFU BIN1 (11741810_x_at) / Fold change /veh BIN1 (11741810_x_at) / RFU WNT11 (11732464_a_at) / Fold change /veh WNT11 (11732464_a_at) / RFU C10orf10 (11716521_a_at) / Fold change /veh C10orf10 (11716521_a_at) / RFU C5orf56 (11738089_at) / Fold change /veh C5orf56 (11738089_at) / RFU CYB561 (11721691_x_at) / Fold change /veh CYB561 (11721691_x_at) / RFU ANKRD19P (11752326_a_at) / Fold change /veh ANKRD19P (11752326_a_at) / RFU OR2T12 /// OR2T33 /// OR2T8 (11738714_s_at) / Fold change /veh OR2T12 /// OR2T33 /// OR2T8 (11738714_s_at) / RFU VCAN (11748164_a_at) / Fold change /veh VCAN (11748164_a_at) / RFU JSRP1 (11732532_at) / Fold change /veh JSRP1 (11732532_at) / RFU KRTAP10-11 (11738290_x_at) / Fold change /veh KRTAP10-11 (11738290_x_at) / RFU MYO3A (11730013_a_at) / Fold change /veh MYO3A (11730013_a_at) / RFU EBF3 (11725865_a_at) / Fold change /veh EBF3 (11725865_a_at) / RFU CAMK2N1 (11719241_x_at) / Fold change /veh CAMK2N1 (11719241_x_at) / RFU C5orf56 (11738088_a_at) / Fold change /veh C5orf56 (11738088_a_at) / RFU OLFML3 (11715873_a_at) / Fold change /veh OLFML3 (11715873_a_at) / RFU LOC100653217 /// NTM (11731650_a_at) / Fold change /veh LOC100653217 /// NTM (11731650_a_at) / RFU MAPK11 (11762145_a_at) / Fold change /veh MAPK11 (11762145_a_at) / RFU FIZ1 (11724087_x_at) / Fold change /veh FIZ1 (11724087_x_at) / RFU OASL (11726364_x_at) / Fold change /veh OASL (11726364_x_at) / RFU SOX15 (11748057_x_at) / Fold change /veh SOX15 (11748057_x_at) / RFU CD79A (11719716_a_at) / Fold change /veh CD79A (11719716_a_at) / RFU HIST1H1D (11736915_at) / Fold change /veh HIST1H1D (11736915_at) / RFU CASKIN2 (11723855_a_at) / Fold change /veh CASKIN2 (11723855_a_at) / RFU LOC730098 (11760151_x_at) / Fold change /veh LOC730098 (11760151_x_at) / RFU OR4N2 (11742367_at) / Fold change /veh OR4N2 (11742367_at) / RFU PRRT2 (11749266_a_at) / Fold change /veh PRRT2 (11749266_a_at) / RFU SNX32 (11753110_a_at) / Fold change /veh SNX32 (11753110_a_at) / RFU CDHR5 (11726645_a_at) / Fold change /veh CDHR5 (11726645_a_at) / RFU RCAN1 (11760418_a_at) / Fold change /veh RCAN1 (11760418_a_at) / RFU FAM167A (11723789_a_at) / Fold change /veh FAM167A (11723789_a_at) / RFU FAM26E (11764081_at) / Fold change /veh FAM26E (11764081_at) / RFU ISYNA1 (11749810_s_at) / Fold change /veh ISYNA1 (11749810_s_at) / RFU ACY1 (11761880_at) / Fold change /veh ACY1 (11761880_at) / RFU 11764098_at / Fold change /veh 11764098_at / RFU SAMD14 (11745864_x_at) / Fold change /veh SAMD14 (11745864_x_at) / RFU NPB (11741838_a_at) / Fold change /veh NPB (11741838_a_at) / RFU TMPRSS6 (11731388_a_at) / Fold change /veh TMPRSS6 (11731388_a_at) / RFU KRTAP10-2 (11738614_at) / Fold change /veh KRTAP10-2 (11738614_at) / RFU ARHGAP8 /// PRR5-ARHGAP8 (11727945_x_at) / Fold change /veh ARHGAP8 /// PRR5-ARHGAP8 (11727945_x_at) / RFU KRTAP5-7 /// NADSYN1 (11734609_at) / Fold change /veh KRTAP5-7 /// NADSYN1 (11734609_at) / RFU RASL12 (11751679_a_at) / Fold change /veh RASL12 (11751679_a_at) / RFU CDKN2B (11736163_a_at) / Fold change /veh CDKN2B (11736163_a_at) / RFU PRF1 (11729649_at) / Fold change /veh PRF1 (11729649_at) / RFU, ZNF638 /// ZNF638-IT1 / Fold change vs veh, ZNF638 /// ZNF638-IT1 / RFU, PANK3 / Fold change vs veh, PANK3 / RFU, SH3YL1 / Fold change vs veh, SH3YL1 / RFU, ZEB2 / Fold change vs veh, ZEB2 / RFU, NRIP1 / Fold change vs veh, NRIP1 / RFU, PTTG1IP / Fold change vs veh, PTTG1IP / RFU, CAPN2 / Fold change vs veh, CAPN2 / RFU, MED14 / Fold change vs veh, MED14 / RFU, SNORA58 / Fold change vs veh, SNORA58 / RFU, C1orf63 / Fold change vs veh, C1orf63 / RFU, LRRFIP1 / Fold change vs veh, LRRFIP1 / RFU, NDUFAF7 / Fold change vs veh, NDUFAF7 / RFU, SLC12A2 / Fold change vs veh, SLC12A2 / RFU, IBTK / Fold change vs veh, IBTK / RFU, ESF1 / Fold change vs veh, ESF1 / Fold change vs veh, TMEM50B / RFU, TAOK1 / Fold change vs veh, TAOK1 / RFU, ACBD3 / Fold change vs veh, ACBD3 / RFU, TMA16 / Fold change vs veh, TMA16 / RFU, RWDD3 / Fold change vs veh, RWDD3 / RFU, BCAT1 / Fold change vs veh, BCAT1 / RFU, EDEM3 / Fold change vs veh, EDEM3 / RFU, TMEM33 / Fold change vs veh, TMEM33 / RFU, WDR75 / Fold change vs veh, WDR75 / RFU, AHCTF1 / Fold change vs veh, AHCTF1 / RFU, TFRC / Fold change vs veh, TFRC / RFU, ZDHHC17 / Fold change vs veh, ZDHHC17 / RFU, NOM1 / Fold change vs veh, NOM1 / RFU, ARL8B / Fold change vs veh, ARL8B / RFU, ZBTB11 / Fold change vs veh, ZBTB11 / RFU, TAMM41 / Fold change vs veh, TAMM41 / RFU, KIAA1704 /// LOC100996395 / Fold change vs veh, KIAA1704 /// LOC100996395 / RFU, ING1 / Fold change vs veh, ING1 / RFU, TRMT61B / Fold change vs veh, TRMT61B / RFU, FUBP3 / Fold change vs veh, FUBP3 / RFU, TP53 / Fold change vs veh, TP53 / RFU, TNKS2 / Fold change vs veh, TNKS2 / RFU, ZFP14 / Fold change vs veh, ZFP14 / RFU, ACTR2 / Fold change vs veh, ACTR2 / RFU, PPP3R1 / Fold change vs veh, PPP3R1 / RFU, PIK3R1 / Fold change vs veh, PIK3R1 / RFU, HNRNPA1 / Fold change vs veh, HNRNPA1 / RFU, RNF170 / Fold change vs veh, RNF170 / RFU, ZNF28 / Fold change vs veh, ZNF28 / RFU, RNGTT / Fold change vs veh, RNGTT / RFU, OGT / Fold change vs veh, OGT / RFU, BRD1 / Fold change vs veh, BRD1 / RFU, MARS / Fold change vs veh, MARS / RFU, ZNF655 / Fold change vs veh, ZNF655 / RFU, FAHD1 / Fold change vs veh, FAHD1 / RFU, BDP1 / Fold change vs veh, BDP1 / RFU, LRRCC1 / Fold change vs veh, LRRCC1 / RFU, ARID1A / Fold change vs veh, ARID1A / RFU, ZNF146 / Fold change vs veh, ZNF146 / RFU, ZNF330 / Fold change vs veh, ZNF330 / RFU, GPN3 / Fold change vs veh, GPN3 / RFU, C9orf123 / Fold change vs veh, C9orf123 / RFU, N4BP2L2 / Fold change vs veh, N4BP2L2 / RFU, ARFIP1 / Fold change vs veh, ARFIP1 / RFU, FAM179B / Fold change vs veh, FAM179B / RFU, BCL10 / Fold change vs veh, BCL10 / RFU, UHRF1BP1L / Fold change vs veh, UHRF1BP1L / RFU, BET1 / Fold change vs veh, BET1 / RFU, CNOT2 / Fold change vs veh, CNOT2 / RFU, ZNF268 / Fold change vs veh, ZNF268 / Fold change vs veh, ZNF507 / RFU, DGCR2 / Fold change vs veh, DGCR2 / RFU, WDSUB1 / Fold change vs veh, WDSUB1 / Fold change vs veh, HSP90B1 /// MIR3652 / RFU, ADSS / Fold change vs veh, ADSS / RFU, GK / Fold change vs veh, GK / RFU, ZNF148 / Fold change vs veh, ZNF148 / RFU, TAF9 / Fold change vs veh, TAF9 / RFU, SLC1A5 / Fold change vs veh, SLC1A5 / RFU, SLMO2 / Fold change vs veh, SLMO2 / RFU, ABCC4 / Fold change vs veh, ABCC4 / RFU, LOC101060439 /// RAP1B / Fold change vs veh, LOC101060439 /// RAP1B / RFU, RFX7 / Fold change vs veh, RFX7 / RFU, GTPBP10 / Fold change vs veh, GTPBP10 / RFU, CNEP1R1 / Fold change vs veh, CNEP1R1 / RFU, BIVM-ERCC5 /// ERCC5 / Fold change vs veh, BIVM-ERCC5 /// ERCC5 / RFU, ILF3 / Fold change vs veh, ILF3 / RFU 11762660_at / Fold change /veh 11762660_at / RFU VCAN (11757783_s_at) / Fold change /veh VCAN (11757783_s_at) / RFU DDX43 (11728927_at) / Fold change /veh DDX43 (11728927_at) / RFU KRT8 (11758188_x_at) / Fold change /veh KRT8 (11758188_x_at) / RFU NKD1 (11759106_at) / Fold change /veh NKD1 (11759106_at) / RFU SRD5A1 (11742802_a_at) / Fold change /veh SRD5A1 (11742802_a_at) / RFU TPSAB1 /// TPSB2 (11721975_s_at) / Fold change /veh TPSAB1 /// TPSB2 (11721975_s_at) / RFU GSTM3 (11746129_a_at) / Fold change /veh GSTM3 (11746129_a_at) / RFU IL23R (11737362_x_at) / Fold change /veh IL23R (11737362_x_at) / RFU TMEM51 (11727254_a_at) / Fold change /veh TMEM51 (11727254_a_at) / RFU PIWIL2 (11732686_x_at) / Fold change /veh PIWIL2 (11732686_x_at) / RFU ORM1 (11744905_x_at) / Fold change /veh ORM1 (11744905_x_at) / RFU CCDC152 (11743942_at) / Fold change /veh CCDC152 (11743942_at) / RFU ECM1 (11717891_a_at) / Fold change /veh ECM1 (11717891_a_at) / RFU IL23R (11748794_a_at) / Fold change /veh IL23R (11748794_a_at) / RFU TNFAIP8L3 (11732012_x_at) / Fold change /veh TNFAIP8L3 (11732012_x_at) / RFU MBOAT4 (11741988_at) / Fold change /veh MBOAT4 (11741988_at) / RFU 11764193_at / Fold change /veh 11764193_at / RFU TMEM53 (11763286_at) / Fold change /veh TMEM53 (11763286_at) / RFU MAGEB2 (11727129_at) / Fold change /veh MAGEB2 (11727129_at) / RFU TMEM200A (11744735_a_at) / Fold change /veh TMEM200A (11744735_a_at) / RFU CCDC152 (11751479_a_at) / Fold change /veh CCDC152 (11751479_a_at) / RFU FAM211A (11726209_a_at) / Fold change /veh FAM211A (11726209_a_at) / RFU RGS16 (11746705_a_at) / Fold change /veh RGS16 (11746705_a_at) / RFU VCAN (11755009_s_at) / Fold change /veh VCAN (11755009_s_at) / RFU RHOB (11743442_s_at) / Fold change /veh RHOB (11743442_s_at) / RFU RGS16 (11720943_a_at) / Fold change /veh RGS16 (11720943_a_at) / RFU RGS16 (11720944_at) / Fold change /veh RGS16 (11720944_at) / RFU, VPS4B / Fold change vs veh, VPS4B / RFU, CREB1 / Fold change vs veh, CREB1 / RFU, DNAJC13 / Fold change vs veh, DNAJC13 / RFU, GNAQ / Fold change vs veh, GNAQ / RFU, CDK5R1 / Fold change vs veh, CDK5R1 / RFU, ZRANB3 / Fold change vs veh, ZRANB3 / RFU, CUL4A / Fold change vs veh, CUL4A / RFU, CCNY / Fold change vs veh, CCNY / RFU, UFL1 / Fold change vs veh, UFL1 / RFU, COG3 / Fold change vs veh, COG3 / RFU, DIAPH2 / Fold change vs veh, DIAPH2 / RFU, SKA2 / Fold change vs veh, SKA2 / RFU, AFF3 / Fold change vs veh, AFF3 / RFU, LMF1 / Fold change vs veh, LMF1 / RFU, IPO11 / Fold change vs veh, IPO11 / RFU, DFFB / Fold change vs veh, DFFB / RFU, FOXP1 / Fold change vs veh, FOXP1 / RFU, CARD8 / Fold change vs veh, CARD8 / RFU, STRN3 / Fold change vs veh, STRN3 / RFU, ADK / Fold change vs veh, ADK / RFU, RASSF2 / Fold change vs veh, RASSF2 / RFU, WIPF1 / Fold change vs veh, WIPF1 / RFU, LARP1B / Fold change vs veh, LARP1B / RFU, RASA1 / Fold change vs veh, RASA1 / RFU, RB1 / Fold change vs veh, RB1 / RFU, PPFIA1 / Fold change vs veh, PPFIA1 / RFU, MAT2A / Fold change vs veh, MAT2A / RFU, CCT5 / Fold change vs veh, CCT5 / RFU, WDR92 / Fold change vs veh, WDR92 / RFU, CUX1 / Fold change vs veh, CUX1 / RFU, TTC7A / Fold change vs veh, TTC7A / RFU, TMEM135 / Fold change vs veh, TMEM135 / RFU, DEPTOR / Fold change vs veh, DEPTOR / RFU, CPM / Fold change vs veh, CPM / RFU, DNAJB6 / Fold change vs veh, DNAJB6 / RFU, CACNA2D3 / Fold change vs veh, CACNA2D3 / RFU, DTX4 / Fold change vs veh, DTX4 / RFU, TFCP2 / Fold change vs veh, TFCP2 / RFU, GMCL1 /// GMCL1P1 / Fold change vs veh, GMCL1 /// GMCL1P1 / RFU, AEBP2 / Fold change vs veh, AEBP2 / RFU, SNHG1 /// SNORD22 /// SNORD25 /// SNORD26 /// SNORD27 /// SNORD28 /// SNORD29 /// SNORD31 / Fold change vs veh, SNHG1 /// SNORD22 /// SNORD25 /// SNORD26 /// SNORD27 /// SNORD28 /// SNORD29 /// SNORD31 / Fold change (Aza/veh), C12orf56 (ProbeSet 11735607_a_at) / Fold change (ACY-1035/veh), C12orf56 (ProbeSet 11735607_a_at) / Fold change (Aza/veh), FGFR1OP (ProbeSet 11751329_s_at) / Fold change (ACY-1035/veh), FGFR1OP (ProbeSet 11751329_s_at) / Fold change (Aza/veh), VPS36 (ProbeSet 11739960_a_at) / Fold change (ACY-1035/veh), VPS36 (ProbeSet 11739960_a_at) / RFU SYPL1 (11715823_x_at) / Fold change /veh SYPL1 (11715823_x_at) / RFU IGFBP7 (11715501_s_at) / Fold change /veh IGFBP7 (11715501_s_at) / RFU REEP3 (11722064_at) / Fold change /veh REEP3 (11722064_at) / RFU IGLL1 (11728026_x_at) / Fold change /veh IGLL1 (11728026_x_at): dose or concentration left out as unconfirmed. As to conditions: ProbeSet 11762504_a_at; LIST D.

Take `Nc1ncn([C@@H]2O[C@H](CO)[C@@H](O)[C@H]2O)c(=O)n1` [azacitidine]: the “RFU, ZRANB3” value was 79.10 RFU.
